According to patent publication US11691972B2, “Compounds for targeted degradation of BRD9” (C4 Therapeutics, Inc., priority 2020, dated 2023):

How the values were obtained:
[1] = tested on: Yamato-SS cells; assay: Confluence (growth) over time in Yamato-SS cells; type: cell-based, human
[2] = tested on: Yamato-SS xenograft model; assay: Tumor volume in the Yamato-SS xenograft (CDX) model; type: in vivo, mouse
[3] = Plasma stability, rat; type: in vitro ADME
[4] = Plasma stability, dog; type: in vitro ADME
[5] = PPB, dog; type: in vitro ADME; details: plasma
[6] = PPB, human; type: in vitro ADME; details: plasma
[7] = Hepatocyte stability, human; type: in vitro ADME; details: human hepatocytes; read-out: Hepatocyte stability, Clint scaled ws
[8] = IV PK, rat; type: in vivo; details: for IV PK AUC(0-last) / IV PK Cmax: dose-normalised; for clearance / Vd / half-life: in vivo; for clearance: read-out: IV PK CL; for Vd: read-out: IV PK Vdss; for half-life: read-out: IV PK t1/2 (converted)
[9] = tested on: Yamato (SS18-SSX fusion; BAF perturbed) cells; assay: Confluence perturbation (IncuCyte S3) in Yamato cells; type: cell-based; details: 10 nM to 10^4 nM, single dose, 20-day period; FIG. 4, 16, 17; SW982 cells also tested
Method: FIG. 4, FIG. 16, and FIG. 17 are line graphs illustrating the confluence caused by Compound 172 and Compound 176 at various concentrations. The x-axis is time measured in days and the y axis is confluence measured as a percentage of control. The compounds were incubated at 10 nM, 32 nM, 100 nM, 316 nM, 1000 nM, and 10^4 nM concentrations at a single dose. The compounds were tested in a Yamato (SS18-SSX fusion; BAF perturbed) cells and SW982 (BAF wildtype) cells.
Compound 172 was serially diluted in DMSO and 200 nL were dispensed into 96 well tissue-culture treated plates by the Echo acoustic liquid handler. Yamato cells were counted and adjusted to 11,000 cells/mL with DMEM media supplemented with 10% heat-inactivated FBS. 200 ul of the cell suspension was dispensed into each well. The plate was sealed with a gas-permeable membrane and confluence was measured in a temperature- and humidity-controlled incubator (37° C., 5% CO2) over a 20-day period at 6-hour intervals by the IncuCyte S3. […]
Compound 176 and a comparator BRD9 inhibitor were serially diluted in DMSO and 200 nL were dispensed into 96 well tissue-culture treated plates by the Echo acoustic liquid handler. Yamato cells were counted and adjusted to 11,000 cells/mL with DMEM media supplemented with 10% heat-inactivated FBS. […]

[10] = molecular target: T1, BRD9 (Homo sapiens, UniProt Q9H8M2); assay: Western blot, in-vivo BRD9 degradation in Yamato-SS tumors; design: inoculated subcutaneously into BALB/c nude mice at the right flank for tumor development; from tissue; host or cells: Yamato-SS xenograft tumours in BALB/c nude mice; species or system BALB/c nude mice
T1 sequence (Q9H8M2 1-597): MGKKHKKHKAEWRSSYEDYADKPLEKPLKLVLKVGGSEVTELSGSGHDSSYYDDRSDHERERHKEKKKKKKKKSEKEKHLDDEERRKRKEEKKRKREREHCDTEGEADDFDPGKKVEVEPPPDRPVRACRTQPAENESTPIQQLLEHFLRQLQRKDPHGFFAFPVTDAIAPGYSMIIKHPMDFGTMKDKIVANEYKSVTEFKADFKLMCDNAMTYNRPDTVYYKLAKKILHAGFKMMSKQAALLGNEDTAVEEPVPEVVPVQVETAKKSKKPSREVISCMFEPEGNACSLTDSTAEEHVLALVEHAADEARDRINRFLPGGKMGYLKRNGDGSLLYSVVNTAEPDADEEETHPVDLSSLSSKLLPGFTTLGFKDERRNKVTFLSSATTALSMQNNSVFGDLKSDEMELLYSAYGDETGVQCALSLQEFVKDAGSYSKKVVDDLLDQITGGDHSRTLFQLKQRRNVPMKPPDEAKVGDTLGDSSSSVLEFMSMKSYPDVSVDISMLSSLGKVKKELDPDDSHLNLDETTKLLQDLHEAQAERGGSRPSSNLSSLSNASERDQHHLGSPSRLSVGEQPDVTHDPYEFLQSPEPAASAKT
Method: (§1) Yamato-SS cells were maintained in vitro until exponential growth phase and inoculated subcutaneously into BALB/c nude mice at the right flank for tumor development. Mice were treated with single dose of Compound 172 at 10 or 75 mg/kg PO. Tumor were collected at indicated time points and snap frozen until lysis. Tumors were ground and lysed in RIPA Buffer containing 2× protease/phosphatase inhibitor using a freeze grinder at 50 Hz for 5 minutes. Protein concentrations were determined by Pierce™ BCA Protein Assay Kit. Samples were diluted to appropriate concentrations and run in a western blot.
as §1, with “Yamato-SS” for “Yamato-SS cells”, “flank.” for “flank for tumor development.”, “176” for “172”, “3, 12” for “10”, “50” for “75”
FIG. 20 is a histogram reflecting quantitated bands from FIG. 19. The x axis is time measured in hours and the y axis is BRD9 remaining normalized to vehicle and vinculin measured in percentage.

[11] = molecular target: SALL4 (Homo sapiens, UniProt Q9UJQ4); assay: SALL4 degradation; type: cell-based; details: one value given for IKZF1/SALL4/GSPT1
SALL4, sequence (Q9UJQ4 whole entry, species assumed): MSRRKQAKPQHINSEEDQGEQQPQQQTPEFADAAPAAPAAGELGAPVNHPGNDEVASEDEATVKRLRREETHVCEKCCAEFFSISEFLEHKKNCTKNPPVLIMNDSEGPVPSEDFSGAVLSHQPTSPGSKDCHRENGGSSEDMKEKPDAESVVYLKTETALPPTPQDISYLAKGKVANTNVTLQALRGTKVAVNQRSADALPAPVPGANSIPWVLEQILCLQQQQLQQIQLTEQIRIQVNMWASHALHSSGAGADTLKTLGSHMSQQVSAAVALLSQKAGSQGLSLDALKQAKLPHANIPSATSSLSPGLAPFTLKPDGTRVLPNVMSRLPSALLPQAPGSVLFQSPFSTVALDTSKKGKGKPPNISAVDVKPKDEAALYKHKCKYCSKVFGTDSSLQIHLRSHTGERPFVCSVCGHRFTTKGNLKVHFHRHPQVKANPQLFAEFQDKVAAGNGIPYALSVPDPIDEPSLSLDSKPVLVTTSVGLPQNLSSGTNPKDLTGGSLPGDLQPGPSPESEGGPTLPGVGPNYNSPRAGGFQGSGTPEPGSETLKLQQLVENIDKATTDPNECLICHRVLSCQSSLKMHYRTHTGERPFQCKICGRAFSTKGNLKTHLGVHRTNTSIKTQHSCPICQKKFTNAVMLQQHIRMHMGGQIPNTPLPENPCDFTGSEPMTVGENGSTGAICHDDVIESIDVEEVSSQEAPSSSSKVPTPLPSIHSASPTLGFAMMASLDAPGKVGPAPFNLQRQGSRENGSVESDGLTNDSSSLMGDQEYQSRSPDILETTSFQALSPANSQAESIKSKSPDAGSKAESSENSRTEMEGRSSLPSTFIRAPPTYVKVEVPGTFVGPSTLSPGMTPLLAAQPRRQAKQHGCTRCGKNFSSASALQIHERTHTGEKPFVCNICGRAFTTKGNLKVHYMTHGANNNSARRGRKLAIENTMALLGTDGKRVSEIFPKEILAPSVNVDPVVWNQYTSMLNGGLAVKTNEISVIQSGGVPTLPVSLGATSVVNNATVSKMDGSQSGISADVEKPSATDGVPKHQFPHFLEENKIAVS

[12] = molecular target: CYP 2C9 (Homo sapiens, UniProt P11712); assay: CYP inhibition 2C9; type: in vitro ADME
CYP 2C9, sequence (P11712 whole entry): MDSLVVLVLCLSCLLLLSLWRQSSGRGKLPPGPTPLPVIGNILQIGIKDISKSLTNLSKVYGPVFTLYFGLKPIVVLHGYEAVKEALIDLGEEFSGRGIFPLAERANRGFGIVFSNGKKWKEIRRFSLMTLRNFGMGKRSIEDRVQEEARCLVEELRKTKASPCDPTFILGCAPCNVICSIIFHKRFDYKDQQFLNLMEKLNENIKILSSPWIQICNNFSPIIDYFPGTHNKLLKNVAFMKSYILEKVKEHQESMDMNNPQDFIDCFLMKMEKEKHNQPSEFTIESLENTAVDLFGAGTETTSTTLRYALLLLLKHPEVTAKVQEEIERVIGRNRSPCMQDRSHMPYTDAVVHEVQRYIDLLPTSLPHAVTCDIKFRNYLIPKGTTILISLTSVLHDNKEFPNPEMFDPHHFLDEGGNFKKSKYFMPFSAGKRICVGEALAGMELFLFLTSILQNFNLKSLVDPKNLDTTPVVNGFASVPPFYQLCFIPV

[13] = molecular target: CYP 2D6 (Homo sapiens, UniProt P10635); assay: CYP inhibition 2D6; type: in vitro ADME
CYP 2D6, sequence (P10635 whole entry): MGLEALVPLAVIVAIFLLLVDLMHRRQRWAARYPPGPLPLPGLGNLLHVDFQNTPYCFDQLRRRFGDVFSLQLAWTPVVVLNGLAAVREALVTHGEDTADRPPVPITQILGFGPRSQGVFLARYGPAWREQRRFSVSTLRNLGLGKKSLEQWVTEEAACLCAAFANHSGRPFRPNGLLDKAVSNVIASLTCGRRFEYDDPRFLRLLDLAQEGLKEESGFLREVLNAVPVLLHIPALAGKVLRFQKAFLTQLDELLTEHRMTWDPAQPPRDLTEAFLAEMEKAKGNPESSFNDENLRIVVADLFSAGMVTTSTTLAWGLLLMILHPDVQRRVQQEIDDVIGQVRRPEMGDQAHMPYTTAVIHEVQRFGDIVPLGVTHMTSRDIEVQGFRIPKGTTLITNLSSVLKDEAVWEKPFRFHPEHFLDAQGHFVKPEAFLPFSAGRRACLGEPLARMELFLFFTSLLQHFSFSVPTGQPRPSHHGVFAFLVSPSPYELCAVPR

[14] = IV PK, dog; type: in vivo

SMILES	Stability (plasma) % remaining @3 hrs [3] [%]	Stability (plasma) % remaining @3 hrs [4] [%]	fraction unbound [5]	fraction unbound [6]	CLint scaled [7] [mL/min/kg]	IV PK AUC(0-last) [8]	IV PK Cmax [8]	clearance [8] [mL/min/kg]	Vd [8] [L/kg]	half-life [8] [h]	confluence as a percentage of control [9]	other results
COc1cc(-c2cn(C)c(=O)c(C)c2C)cc(OC)c1CN1CCC(N2CCN(c3ccc(NC4CCC(=O)NC4=O)cc3F)CC2)C(F)(F)C1 (single isomer, unassigned) [Compound 176, 3-[4-[4-[1-[[2,6-dimethoxy-4-(1,4,5-trimethyl-6-oxo-3-pyridyl)phenyl]methyl]-3,3-difluoro-4-piperidyl]piperazin-1-yl]-3-fluoro-anilino]piperidine-2,6-dione]	88	100	0.065	0.067	9.4	771 (h*ng/mL)/(mg/kg)	439 [ng/mL]/(mg/kg)	21.6	6.7	4	A dose response is clearly visible	confluence as a percentage of control, single dose long term growth evaluation ([1]; BAF perturbed Yamato-SS model, various concentrations, FIG. 16): selective growth inhibition; mean tumor volume+SEM ([2]; synovial sarcoma CDX model (Yamato SS), various concentrations, FIG. 21): efficacy; in-vivo BRD9 degradation, western blot ([10]; single dose 3, 12 or 50 mg/kg PO, 1, 4, 12, 24, 48 hr, FIG. 19): time dependent in-vivo BRD9 degradation
COc1cc(-c2cn(C)c(=O)c(C)c2C)cc(OC)c1CN1CCC(N2CCN(c3ccc(NC4CCC(=O)NC4=O)cc3F)CC2)C(F)(F)C1 (stereo not drawn) [Compound 172, 3-[4-[4-[1-[[2,6-dimethoxy-4-(1,4,5-trimethyl-6-oxo-3-pyridyl)phenyl]methyl]-3,3-difluoro-4-piperidyl]piperazin-1-yl]-3-fluoro-anilino]piperidine-2,6-dione]	97.0	80.2	0.039	0.088	9.4	1230 (h*ng/mL)/(mg/kg)	517 [ng/mL]/(mg/kg)	16	7.9	9.5	A dose response is clearly visible	confluence as a percentage of control over time ([1]; Yamato-SS cells, FIG. 4): growth inhibition; response of tumor volume to various concentrations ([2]; Yamato-SS xenograft model, FIG. 7): dose dependent efficacy; DC50 [11]: > 9.99 µM; IC50 [12]: 30 µM; IC50 [13]: 30 µM; IV PK AUC(0-last) ([14]; dose-normalised): 2343 (h*ng/mL)/(mg/kg); IV PK Cmax ([14]; dose-normalised): 767 [ng/mL]/(mg/kg); clearance ([14]; in vivo, read-out: IV PK CL): 6.2 mL/min/kg; Vd ([14]; in vivo, read-out: IV PK Vdss): 4.36 L/kg; half-life ([14]; in vivo, read-out: IV PK t1/2 (converted)): 8.8 h; in-vivo BRD9 degradation, western blot ([10]; single dose 10 or 75 mg/kg PO, FIG. 12, not BRD7): dose dependent in-vivo BRD9 degradation
